Test results from paper PMC9928118, “Funneling modulatory peptide design with generative models: Discovery and characterization of disruptors of calcineurin protein-protein interactions” (PLOS Computational Biology, 2023).

System: GST-tagged Cn
Experiment: PEPperPRINT peptide microarray binding assay with GST-tagged Cn
Outline: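 Qualitative binding: peptides printed on a PEPperPRINT microarray were incubated overnight at 4 °C with 1 mg/ml GST-tagged Cn, then detected with Alexa-Fluor 647 anti-GST antibody. Log fluorescence was baseline-corrected, averaged over duplicate spots, Z-normalized and averaged across five repeats.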

[1] = GST-tagged Cn, max over the chip spots listed under Location on chip
[2] = GST-tagged Cn, mean over the chip spots listed under Location on chip
[3] = GST-tagged Cn, max over the spots on the chip (two locations)
[4] = GST-tagged Cn, mean over the spots on the chip (two locations)
[5] = max over the spots listed under Location on chip
[6] = mean over the spots listed under Location on chip
[7] = GST-tagged Cn, max over the chip locations
[8] = GST-tagged Cn, mean over the chip locations
[9] = max over the chip locations listed for the peptide (two spots)
[10] = mean over the chip locations listed for the peptide (two spots)
[11] = GST-tagged Cn, max over the spots named in Location on chip
[12] = GST-tagged Cn, mean over the spots named in Location on chip

## PSMAAPAINIDFAPTN [SeqRBMlowT_2463]
[1]
  Chip Fluorescence (max): 0.9672
[2]
  Chip Fluorescence (mean): 0.03589

## TDHMNPQITISSKEND [SeqRBM_3457]
[3]
  Chip Fluorescence (max): 1.164
[4]
  Chip Fluorescence (mean): 0.5231

## TFWTNPQYRIKLEEAD [SeqRBMlowT_241]
[5]
  Chip Fluorescence (max): 3.006
[6]
  Chip Fluorescence (mean): 0.9242

## ASDDIPTVVIHPPEED [SeqSLC4A7_Pan_troglodytes]
[5]
  Chip Fluorescence (max): 2.587
[6]
  Chip Fluorescence (mean): -0.184

## RAYINPFMQFTDDGRR [SeqRBMlowT_7881]
[1]
  Chip Fluorescence (max): 0.7684
[2]
  Chip Fluorescence (mean): -0.05563

## STSSLPTFSFSSPQST [SeqRBMlowT_3930]
[7]
  Chip Fluorescence (max): -0.1298
[8]
  Chip Fluorescence (mean): -1.588

## LKDEFPDVRLHIISKL [SeqRCN1_Arthroderma_otae]
[3]
  Chip Fluorescence (max): 1.269
[4]
  Chip Fluorescence (mean): 0.6031

## NIEKMPELQACGHTSF [SeqRBM_2022]
[9]
  Chip Fluorescence (max): 4.705
[10]
  Chip Fluorescence (mean): 1.485

## KVMAVPRISRSPTQVL [SeqRBM_6937]
[11]
  Chip Fluorescence (max): 1.835
[12]
  Chip Fluorescence (mean): 0.723

## LATQVPTFEITSPNSA [SeqNRG2_Pan_troglodytes]
[7]
  Chip Fluorescence (max): 0.1795
[8]
  Chip Fluorescence (mean): -0.588

## GGESQPGIVVHVCEED [SeqRBMlowT_2505]
[11]
  Chip Fluorescence (max): 1.711
[12]
  Chip Fluorescence (mean): 0.4381

## RNPGTALLTLRGHKKQ [SeqRBMlowT_5859]
[7]
  Chip Fluorescence (max): 0.05866
[8]
  Chip Fluorescence (mean): -0.8616

## QAIYQDILGIGAFSGS [SeqRBM_285]
[3]
  Chip Fluorescence (max): 1.266
[4]
  Chip Fluorescence (mean): -0.8575

## TFHREPQNRLYVLSAV [SeqRBM_456]
[7]
  Chip Fluorescence (max): 0.238
[8]
  Chip Fluorescence (mean): -1.007

## SFVHLPDFKVESLVRR [Seqshuffled_9544]
[9]
  Chip Fluorescence (max): 4.191
[10]
  Chip Fluorescence (mean): 0.5898

## TFWHNPQYVINLEDPD [SeqCAPN11_Anopheles_dirus]
[11]
  Chip Fluorescence (max): 1.5542
[12]
  Chip Fluorescence (mean): 0.5719

## GTETTPSVVVHVCEDD [SeqRBMlowT_112]
[9]
  Chip Fluorescence (max): 4.01
[10]
  Chip Fluorescence (mean): 1.52

## ADEANPEITVTPAELP [SeqRBMlowT_396]
[1]
  Chip Fluorescence (max): 0.3864
[2]
  Chip Fluorescence (mean): -0.7137

## GHSHNPSITITFAEAE [SeqRBM_9189]
[9]
  Chip Fluorescence (max): 4.764
[10]
  Chip Fluorescence (mean): 1.127

## ATSGTFPQTDGSHKKQ [SeqRBMlowT_7701]
[7]
  Chip Fluorescence (max): -0.3986
[8]
  Chip Fluorescence (mean): -1.022

## LLDDVPDVVVHPPEED [SeqRBMlowT_144]
[9]
  Chip Fluorescence (max): 4.37
[10]
  Chip Fluorescence (mean): 2.238

## HVSSSPRIAITPTQHR [SeqRBMlowT_8885]
[11]
  Chip Fluorescence (max): 1.646
[12]
  Chip Fluorescence (mean): -0.634

## FFHHGLSCCKARQAEY [Seqrandom_9955]
[9]
  Chip Fluorescence (max): 3.699
[10]
  Chip Fluorescence (mean): 0.5277

## NIIKTLTAVARYCQHF [Seqrandom_9968]
[11]
  Chip Fluorescence (max): 1.398
[12]
  Chip Fluorescence (mean): -0.3065

## TFWSNPQFKVSLEEPD [SeqRBMlowT_2967]
[11]
  Chip Fluorescence (max): 1.583
[12]
  Chip Fluorescence (mean): -0.5694

## TFWTNPQFRITLEEED [SeqRBMlowT_658]
[9]
  Chip Fluorescence (max): 4.839
[10]
  Chip Fluorescence (mean): 1.41

## KERDVNYYIIHPVGSA [Seqshuffled_9799]
[9]
  Chip Fluorescence (max): 3.906
[10]
  Chip Fluorescence (mean): 0.5831

## FHYEDLSWHFQLFEGE [Seqrandom_9976]
[9]
  Chip Fluorescence (max): 5.256
[10]
  Chip Fluorescence (mean): 1.49

## RTYINPFMQFTDGGRF [SeqRBMlowT_552]
[5]
  Chip Fluorescence (max): 2.5867
[6]
  Chip Fluorescence (mean): 0.5553

## RNPESPSLFLEGHLSR [SeqRBMlowT_8778]
[5]
  Chip Fluorescence (max): 3.012
[6]
  Chip Fluorescence (mean): 0.475

## NSSGAPQFQINVLMGE [SeqRBM_9653]
[7]
  Chip Fluorescence (max): -0.2717
[8]
  Chip Fluorescence (mean): -1.157

## RNPGQALLTLEGHSAS [SeqRBMlowT_5868]
[1]
  Chip Fluorescence (max): 0.6524
[2]
  Chip Fluorescence (mean): -0.2838

## QSNSTPTITITPPSDA [SeqRBM_9156]
[9]
  Chip Fluorescence (max): 7.93
[10]
  Chip Fluorescence (mean): 2.436

## LKKTYLRREMHGCYNH [Seqrandom_9958]
[11]
  Chip Fluorescence (max): 1.4154
[12]
  Chip Fluorescence (mean): 0.777

## GDYMQGTLQAETGEHD [Seqshuffled_9624]
[11]
  Chip Fluorescence (max): 1.494
[12]
  Chip Fluorescence (mean): 0.7951

## LHPTCDPFRCSTHQSH [Seqshuffled_9610]
[3]
  Chip Fluorescence (max): 1.254
[4]
  Chip Fluorescence (mean): 0.008632

## KAYIMLFFTFIDGGQK [SeqRBM_3979]
[1]
  Chip Fluorescence (max): 0.8506
[2]
  Chip Fluorescence (mean): -0.3833

## TFWTNPQYRITLEDVD [SeqRBMlowT_4237]
[3]
  Chip Fluorescence (max): 1.081
[4]
  Chip Fluorescence (mean): 0.5254

## THTKISSFRGDAEPAP [Seqshuffled_9494]
[7]
  Chip Fluorescence (max): 0.1716
[8]
  Chip Fluorescence (mean): -0.4714

## KAYMCSFMRFIEGGRR [SeqRBMlowT_3379]
[5]
  Chip Fluorescence (max): 2.957
[6]
  Chip Fluorescence (mean): -0.3215

## SSSSLPTFQFSTPATL [SeqRBM_7341]
[3]
  Chip Fluorescence (max): 1.265
[4]
  Chip Fluorescence (mean): -1.213

## TFWTNPQYRVHVPDED [SeqRBMlowT_2927]
[3]
  Chip Fluorescence (max): 1.2431
[4]
  Chip Fluorescence (mean): -0.6745

## LSDNRPNVRMEAPMVQ [SeqRBM_9917]
[7]
  Chip Fluorescence (max): 0.09814
[8]
  Chip Fluorescence (mean): -0.3526

## VRFTLPEKQVHSSAPS [SeqRBM_2315]
[1]
  Chip Fluorescence (max): 0.7129
[2]
  Chip Fluorescence (mean): -0.8346

## TFWTNPQYRIKLEEED [SeqRBMlowT_1298]
[11]
  Chip Fluorescence (max): 1.462
[12]
  Chip Fluorescence (mean): 0.439

## KDKAGKRSHLKGHSES [Seqshuffled_5410]
[1]
  Chip Fluorescence (max): 0.8078
[2]
  Chip Fluorescence (mean): -0.09052

## RNPGQALLTLRGHSAS [SeqRBMlowT_5835]
[1]
  Chip Fluorescence (max): 0.6321
[2]
  Chip Fluorescence (mean): -0.2233

## PSALIPSLSMDPSMSE [SeqRBM_6067]
[9]
  Chip Fluorescence (max): 4.106
[10]
  Chip Fluorescence (mean): 0.6019

## SRPLDEEGAMAPTLAN [SeqRIPOR2_Propithecus_coquereli]
[1]
  Chip Fluorescence (max): 0.9511
[2]
  Chip Fluorescence (mean): 0.1118

## KAYINPFMTFIEGGRK [SeqRBMlowT_3627]
[9]
  Chip Fluorescence (max): 4.329
[10]
  Chip Fluorescence (mean): 0.4696

## SPSIVANADLVVPYSE [SeqRBM_1237]
[1]
  Chip Fluorescence (max): 0.5354
[2]
  Chip Fluorescence (mean): -0.2316

## KKMSPPCIVVSPPEED [SeqRBMlowT_306]
[9]
  Chip Fluorescence (max): 6.125
[10]
  Chip Fluorescence (mean): 1.9169

## ADEANPQITITPAELP [SeqRBMlowT_1252]
[7]
  Chip Fluorescence (max): -0.527
[8]
  Chip Fluorescence (mean): -1.133

## GTESTPSVVVHVCESE [SeqRCN1_Pongo_abelii]
[9]
  Chip Fluorescence (max): 3.823
[10]
  Chip Fluorescence (mean): 1.0203

## RQPGTLGLTLEGHSNS [SeqRBM_7786]
[1]
  Chip Fluorescence (max): 0.7712
[2]
  Chip Fluorescence (mean): -0.3628

## QTSCLPFPVVNSQEGQ [SeqRBM_2540]
[3]
  Chip Fluorescence (max): 1.036
[4]
  Chip Fluorescence (mean): -0.9088

## ARPPNAAFVLDQETTY [Seqshuffled_9990]
[3]
  Chip Fluorescence (max): 1.0396
[4]
  Chip Fluorescence (mean): 0.6258

## TFWTNPQFRLKLEDPD [SeqRBMlowT_699]
[1]
  Chip Fluorescence (max): 0.8365
[2]
  Chip Fluorescence (mean): -0.3514

## STAALPKFDFSNPHIS [SeqRBM_9234]
[5]
  Chip Fluorescence (max): 2.8681
[6]
  Chip Fluorescence (mean): 0.4605

## LKDEVPEVRLNIISSL [SeqRBMlowT_4107]
[1]
  Chip Fluorescence (max): 0.9435
[2]
  Chip Fluorescence (mean): -0.1625

## TYWTNPQFRVTLEDPD [SeqRBMlowT_4395]
[5]
  Chip Fluorescence (max): 3.405
[6]
  Chip Fluorescence (mean): 0.7303

## TFWTNPQFKVKLEEPD [SeqRBMlowT_221]
[1]
  Chip Fluorescence (max): 0.5686
[2]
  Chip Fluorescence (mean): -0.7828

## RNPGIALLSLRGHKAQ [SeqRBMlowT_8792]
[3]
  Chip Fluorescence (max): 1.2142
[4]
  Chip Fluorescence (mean): 0.3008

## PMLVFRALRIHESPLP [Seqshuffled_9670]
[1]
  Chip Fluorescence (max): 0.8908
[2]
  Chip Fluorescence (mean): 0.2837
